Laboratory results from ChEMBL document CHEMBL1201862, “PubChem BioAssay data set” (2004).
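Step 1: Grow cells in 96-well plates. Step 2: Expose to compound for 48 hours at 5 concentrations. Step 3: Interpolate endpoints linearly; if unreached, use highest concentration. Abbreviation: GI50, concentration required for 50% inhibition of growth.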 The source made the active and inactive calls. No stated cut-off is given here; in the data, active = GI50 up to about 1.1 µM and inactive = higher.

How the values were obtained:
Assay in all cases: DTP human tumour cell line panel, 48 h
[1] = test system: Malme-3M
[2] = test system: OVCAR-5
[3] = test system: HL-60
[4] = test system: UACC-257
[5] = test system: SR
[6] = test system: HCT-116
[7] = test system: MCF7
[8] = test system: T47D
[9] = test system: Hs-578T
[10] = test system: OVCAR-4
[11] = test system: M14
[12] = test system: K562
[13] = test system: MDA-MB-435
[14] = test system: SNB-78
[15] = test system: DU-145
[16] = test system: HOP-62
[17] = test system: SK-MEL-28
[18] = test system: SW-620
[19] = test system: NCI-H522
[20] = test system: 786-0
[21] = test system: RXF 393
[22] = test system: BT-549
[23] = test system: SNB-19
[24] = test system: DLD-1
[25] = test system: NCI-H226
[26] = test system: ACHN
[27] = test system: SF-539
[28] = test system: MDA-N
[29] = test system: SF-295
[30] = test system: SNB-75
[31] = test system: DMS-114
[32] = test system: NCI-H460
[33] = test system: A498
[34] = test system: RPMI-8226
[35] = test system: UACC-62
[36] = test system: IGROV-1
[37] = test system: EKVX
[38] = test system: HCC 2998
[39] = test system: NCI-H23
[40] = test system: SF-268
[41] = test system: SK-MEL-2
[42] = test system: COLO 205
[43] = test system: TK-10
[44] = test system: DMS-273
[45] = test system: MDA-MB-231
[46] = test system: OVCAR-8
[47] = test system: M19-MEL
[48] = test system: HOP-92
[49] = test system: CAKI-1
[50] = test system: UO-31
[51] = test system: HOP-18
[52] = test system: NCI/ADR-RES
[53] = test system: CCRF-CEM
[54] = test system: SK-OV-3
[55] = test system: HT-29
[56] = test system: U-251
[57] = test system: MOLT-4
[58] = test system: A549
[59] = test system: OVCAR-3
[60] = test system: KM-20L2
[61] = test system: LOX IMVI
[62] = test system: PC-3
[63] = test system: KM12
[64] = test system: SN12C
[65] = test system: XF498
[66] = test system: LXFL 529

Measured: GI50

O=c1n(CC2CO2)c(=O)n(CC2CO2)c(=O)n1CC1CO1 (configuration not stated) [TEROXIRONE]
inactive: [1] 25.4 µM | [2] 67.8 µM | [3] 1.55 µM | [4] 32.7 µM | [5] 1.25 µM | [6] 22.1 µM | [7] 11.1 µM | [8] 17.3 µM | [9] 33.8 µM | [10] 45.2 µM | [11] 9.27 µM | [12] 22.8 µM | [13] 17.9 µM | [14] 110 µM | [15] 6.97 µM | [16] 20.3 µM | [17] 54.5 µM | [18] 34 µM | [19] 13.6 µM | [20] 6.22 µM | [21] 37 µM | [22] 11.5 µM | [23] 26.2 µM | [24] 62.1 µM | [25] 26.6 µM | [26] 1.36 µM | [27] 7.76 µM | [28] 20.8 µM | [29] 10 µM | [30] 25.1 µM | [31] 11.4 µM | [32] 2.03 µM | [33] 30.3 µM | [34] 39.4 µM | [35] 2.49 µM | [36] 39.2 µM | [37] 96.2 µM | [38] 43.7 µM | [39] 16.7 µM | [40] 14.3 µM | [41] 90.2 µM | [42] 14.3 µM | [43] 36.6 µM | [44] 1.16 µM | [45] 26.4 µM | [46] 33.3 µM | [47] 53.7 µM | [48] 39.3 µM | [49] 8.04 µM | [50] 25.7 µM | [51] 91.8 µM | [52] 34 µM | [53] 3.6 µM | [54] 36.1 µM | [55] 13.9 µM | [56] 11 µM | [57] 2.35 µM | [58] 13.7 µM | [59] 32.7 µM | [60] 68.5 µM | [61] 14.1 µM | [62] 25 µM | [63] 56.1 µM | [64] 7.83 µM

O=C1OCCC1(Cc1ccc(Cl)cc1)Cc1ccc(Cl)cc1
inactive: [1] > 100 µM | [65] 15.9 µM | [2] > 100 µM | [3] > 100 µM | [4] > 100 µM | [5] > 100 µM | [6] > 100 µM | [10] 36.2 µM | [11] > 100 µM | [12] > 100 µM | [14] 42.3 µM | [16] 31.3 µM | [17] > 100 µM | [18] > 100 µM | [19] > 100 µM | [20] 64.6 µM | [23] 30 µM | [24] > 100 µM | [25] > 100 µM | [26] > 100 µM | [29] 34 µM | [30] 21.6 µM | [32] > 100 µM | [33] 46 µM | [34] > 100 µM | [35] > 100 µM | [36] > 100 µM | [37] > 100 µM | [39] 53.2 µM | [40] > 100 µM | [41] 71.8 µM | [42] > 100 µM | [43] 46.8 µM | [46] 64.6 µM | [47] > 100 µM | [48] 30.3 µM | [49] > 100 µM | [50] 54.7 µM | [53] > 100 µM | [54] > 100 µM | [55] > 100 µM | [66] > 100 µM | [56] 52.1 µM | [57] > 100 µM | [58] > 100 µM | [59] > 100 µM | [63] > 100 µM | [64] > 100 µM
